Values of other authors, collected in patent EP0277754A1, “Method involving propylene amine oxime complexes” (AMERSHAM INTERNATIONAL plc, priority 1987, dated 1988).

In the case of `CC(=NO)C(C)(C)NCCCNC(C)(C)C(C)=NO` [PnAO], the “retention in human brain” value is given as “retained only to a small extent”.
